Reference: patent publication US20260209249A1, “NOVEL TRICYCLIC COMPOUND AS KRAS G12D INHIBITOR, AND USE THEREOF” (SK Biopharmaceuticals Co., priority 2022, published 2026)

Tests used:
[1] = biological target: T1, GDP-KRAS G12D mutant protein (Homo sapiens, UniProt P01116, G12D); assay: Differential scanning fluorimetry (DSF) binding affinity to GDP-KRAS G12D mutant protein; conditions: DSF thermal shift, 10 μM compound, 4 μg KRAS protein
T1 construct: purchased Daegu Gyeongbuk Medical Innovation Foundation (DGMIF), made to order
Experimental: (§1) Test Example 1: Measurement of Binding Affinity to KRAS G12D Mutant Protein The binding affinities of the compounds according to one embodiment of the present application to the KRAS G12D mutant protein were evaluated using differential scanning fluorimetry (DSF). Differential scanning fluorimetry (DSF) is a method used to study the stability of a protein upon binding to a compound. The experiment can be performed using a real-time PCR (RT-PCR) instrument, and is commonly employed as a screening technique for small-molecule compounds targeting specific proteins. As the temperature increases, folded proteins begin to unfold, during which a hydrophobic dye such as SYPRO Orange binds to the exposed hydrophobic regions of the protein, resulting in a measurable increase in fluorescence intensity (maximum absorption at 470 nm and maximum emission at 570 nm). Protein-compound binding is determined by the difference in the melting temperature (Tm) of the protein in the presence of the compound compared to the Tm in the absence of the compound, expressed as ΔTm. The binding affinity to the KRAS G12D mutant protein was measured using the Protein Thermal Shift Dye kit (#4461146, Applied Biosystems). The GDP-KRAS G12D mutant protein and GppNHp-KRAS G12D mutant protein used in the experiment were recombinant proteins synthesized by the Daegu Gyeongbuk Medical Innovation Foundation (DGMIF) upon request. The analysis of binding between the compound and the KRAS G12D mutant protein was performed according to the following reaction recipe: each test sample contained 4 μg of KRAS protein, 10 μM of the compound, and 2×SYPRO Orange dye. For the GDP-KRAS G12D protein samples, the buffer provided with the Protein Thermal Shift Dye kit was used, while for the GppNHp-KRAS G12D protein samples, 50 mM HEPES (pH 7.5) buffer was used. For the protein-compound binding reaction, the compound was added to the KRAS G12D mutant protein and reacted at room temperature for 30 minutes, followed by the addition of 2×SYPRO Orange dye. The temperature was increased to 25° C.-99° C. (0.05° C./s) using QuantStudiol RT-PCR instrument (Applied Biosystems), and fluorescence was measured using a ROX reporter with filters of 580±10 nm (excitation)/623±14 nm (emission). The measurements obtained at a compound concentration of 10 μM were analyzed using the Protein Thermal Shift Software program (version v1.4, Thermo Fisher Scientific), and the ΔTm (° C.) values, which indicate the binding affinity of the compound to the KRAS G12D mutant protein, were calculated. The DSF measurement results for the compounds according to one embodiment of the present application with respect to the KRAS G12D mutant protein are shown in Table 2.

[2] = biological target: T2, GppNHp-KRAS G12D mutant protein (Homo sapiens, UniProt P01116, G12D); assay: Differential scanning fluorimetry (DSF) binding affinity to GppNHp-KRAS G12D mutant protein; conditions: DSF thermal shift, 10 μM compound, 4 μg KRAS protein, 50 mM HEPES (pH 7.5)
T2 construct: purchased Daegu Gyeongbuk Medical Innovation Foundation (DGMIF), made to order
Experimental: as §1

Compound	GDP-KRAS G12D (ΔTmD, ° C.) [1] [°C]	GppNHp-KRAS G12D (ΔTmD, ° C.) [2] [°C]
Cc1cc2[nH]ncc2c(-c2cc3nc(OC[C@@]45CCCN4C[C@H](F)C5)nc(N4C[C@H]5CC[C@@H](C4)N5)c3n3ccnc23)c1C(F)(F)F [Example 26, 1-((1 R,5S)-3,8-diazabicyclo[3.2.1]octan-3-yl)-3-(((2R,7aS)-2-fluorotetrahydro-1H-pyrrolizin-7a(5H)-yl)methoxy)-6-(6-methyl-5-(trifluoromethyl)-1H-indazol-4-yl)imidazo[1′,2′:1,6]pyrido[3,2-d]pyrimidine]	4.12	1.01
Nc1nc2c(-c3cc4nc(OC[C@@]56CCCN5C[C@H](F)C6)nc(N5[C@@H]6CC[C@H]5CNC6)c4n4ccnc34)ccc(F)c2s1 [Example 15, 4-(1-((1R,5S)-3,8-diazabicyclo[3.2.1]octan-8-yl)-3-(((2R,7aS)-2-fluorotetrahydro-1H-pyrrolizin-7a(5H)-yl)methoxy)imidazo[1′,2′:1,6]pyrido[3,2-d]pyrimidin-6-yl)-7-fluorobenzo[d]thiazol-2-amine]	−0.01	0.28
Cc1cc2c(o1)c(-c1c(Cl)c(C)cc3[nH]ncc13)c(F)c1nc(OC[C@@]34CCCN3C[C@H](F)C4)nc(N3C[C@H]4CC[C@@H](C3)N4)c12 [Example 51, 1-((1 R,5S)-3,8-diazabicyclo[3.2.1]octan-3-yl)-6-(5-chloro-6-methyl-1H-indazol-4-yl)-5-fluoro-3-(((2R,7aS)-2-fluorotetrahydro-1H-pyrrolizin-7a(5H)-yl)methoxy)-8-methylfuro[3,2-f]quinazoline]	4.73	1.32
C#Cc1c(F)ccc2cc(O)cc(-c3c(F)c4nc(OC[C@@]56CCCN5CC(=C(F)F)C6)nc(N5CC6CCC(C5)N6)c4c4cn(C)nc34)c12 [Example 92, 4-(9-((1R,5S)-3,8-diazabicyclo[3.2.1]octan-3-yl)-7-(((S)-2-(difluoromethylene)tetrahydro-1H-pyrrolizin-7a(5H)-yl)methoxy)-5-fluoro-2-methyl-2H-pyrazolo[4,3-]quinazolin-4-yl)-5-ethynyl-6-fluoronaphthalen-2-ol]	17.61	13.02
Cc1cc2c(o1)c(-c1nc(N)cc(C)c1C(F)(F)F)c(F)c1nc(OC[C@@]34CCCN3C[C@H](F)C4)nc(N3C[C@H]4CC[C@@H](C3)N4)c12 [Example 60, 6-(1-((1R,5S)-3,8-diazabicyclo[3.2.1]octan-3-yl)-5-fluoro-3-(((2R,7aS)-2-fluorotetrahydro-1H-pyrrolizin-7a(5H)-yl)methoxy)-8-methylfuro[3,2-n]quinazolin-6-yl)-4-methyl-5-(trifluoromethyl)pyridin-2-amine]	0.87	1.61
Cc1cc2c(o1)c(-c1nc(N)ccc1C(F)(F)F)c(F)c1nc(OC[C@@]34CCCN3C[C@H](F)C4)nc(N3C[C@H]4CC[C@@H](C3)N4)c12 [Example 50, 6-(1-((1R,5S)-3,8-diazabicyclo[3.2.1]octan-3-yl)-5-fluoro-3-(((2R,7aS)-2-fluorotetrahydro-1H-pyrrolizin-7a(5H)-yl)methoxy)-8-methylfuro[3,2-f]quinazolin-6-yl)-5-(trifluoromethyl)pyridin-2-amine]	0.58	−0.31
C#Cc1c(F)ccc2cccc(-c3cc4nc(OC[C@@]56CCCN5C/C(=C\F)C6)nc(N5[C@@H]6CC[C@H]5CNC6)c4n4ccnc34)c12 [Example 22, 1-((1R,5S)-3,8-diazabicyclo[3.2.1]octan-8-yl)-6-(8-ethynyl-7-fluoronaphthalen-1-yl)-3-(((S,Z)-2-(fluoromethylene)tetrahydro-1H-pyrrolizin-7a(5H)-yl)methoxy)imidazo[1′,2′:1,6]pyrido[3,2-d]pyrimidine]	4.28	1.02
